Assay results as given in patent US11981680B2, “Substituted thienopyrroles as PAD4 inhibitors” (BRISTOL-MYERS SQUIBB COMPANY, priority 2018, dated 2024).

Target: human PAD4 (hPAD4) (Homo sapiens (Human), UniProt Q9UM07)
Assay: RFMS Human PAD4 Functional Assay
Assay type: biochemical
Conditions: rapid-fire mass spectrum (RFMS) assay; 5 nM hPAD4 enzyme, 250 μM BAEE, 30 min preincubation at 37° C.
Description: Compounds of the present invention were assayed as inhibitors of PAD4 using the assay protocol described below.
RFMS Human PAD4 Functional Assay:
Compounds were solubilized in 100% DMSO to achieve a10 mM compound concentration. Compound stock solutions were stored at RT. A series of dilutions were prepared in DMSO and mixed 8 times with 20 μL mixing volume. Final top concentration of compound in the assay is 50 μM. Final assay conditions were as follows: • Reaction volume: 26 μl • Assay buffer: 25 mM hepes, pH 7.5, 5 mM NaCl, 1 mM DTT, 0.2 mg/ml BSA, 0.01% CHAPS, 50 μM Calcium, and 5 μM TPEN • Final concentrations: 5 nM hPAD4 enzyme, 250 μM BAEE, and 0.5% DMSO • Total incubation time: 30 mins compound and enzyme preincubation at 37° C., 90 min enzyme/substrate reaction, 30 min reaction with phenyl glyoxal at 37° C. • Stop solution: 40 μl 5% TCA in ACN
0.13 μL of compound solution was added to 13 μL of 10 nM PAD4 in assay buffer. After 30 min 13 μl of 500 μM of BAEE was added in 25 mM hepes, pH 7.5, 5 mM NaCl, 1 mM DTT, 0.2 mg/ml BSA, 0.01% CHAPS, 50 μM Calcium, 5 μM TPEN was added and the reaction incubated for 90 min at 37° C. The enzymatic reaction was quenched by addition of 15 μl of 6.1N TCA, 100% Final Concentration is 20%, 35 μl of 8.5 mM phenyl glyoxal (final concentration 4 mM) is then added and the reaction is incubated for 30 min at 37° C.
After 30 minutes the plates are spun down to remove all precipitate. The enzyme reaction was quenched with an equal volume of methanol containing internal standard (modified citrulline). Samples were loaded onto the Rapid Fire RF300 system (Agilent) wherein they were first sipped for 1000 ms and then directly loaded to a C18 separations cartridge using a mixture of acetonitrile containing 0.01% formic acid for 3000 ms desalting. The flow rate of the mobile phase was 1.5 ml/min. Once the samples were eluted from the cartridge, a mobile phase of acetonitrile containing 0.01% formic acid was used to move the samples into the mass spectrometer for 4000 ms at a flow rate of 1.25 ml/min/Sciex API5500 triple quadrupole mass spectrometer (Applied Biosystems) equipped with ESI was used to analyze the peptidyl citrulline and internal standard ions.
MRM transition of product and internal standard were monitored at m/z 424.5 to 350.4 and m/z 293 to 247 respectively. The dwell time for each transition was set at 200 ms, and the ESI voltage was used at 5500 with a source temperature of 400° C. Extracted ion peaks for each transition were integrated using the Rapid Fire Integrator software. Peak area of analyte was normalized with internal standard.).

Sequence of human PAD4 (hPAD4) (Q9UM07 whole entry): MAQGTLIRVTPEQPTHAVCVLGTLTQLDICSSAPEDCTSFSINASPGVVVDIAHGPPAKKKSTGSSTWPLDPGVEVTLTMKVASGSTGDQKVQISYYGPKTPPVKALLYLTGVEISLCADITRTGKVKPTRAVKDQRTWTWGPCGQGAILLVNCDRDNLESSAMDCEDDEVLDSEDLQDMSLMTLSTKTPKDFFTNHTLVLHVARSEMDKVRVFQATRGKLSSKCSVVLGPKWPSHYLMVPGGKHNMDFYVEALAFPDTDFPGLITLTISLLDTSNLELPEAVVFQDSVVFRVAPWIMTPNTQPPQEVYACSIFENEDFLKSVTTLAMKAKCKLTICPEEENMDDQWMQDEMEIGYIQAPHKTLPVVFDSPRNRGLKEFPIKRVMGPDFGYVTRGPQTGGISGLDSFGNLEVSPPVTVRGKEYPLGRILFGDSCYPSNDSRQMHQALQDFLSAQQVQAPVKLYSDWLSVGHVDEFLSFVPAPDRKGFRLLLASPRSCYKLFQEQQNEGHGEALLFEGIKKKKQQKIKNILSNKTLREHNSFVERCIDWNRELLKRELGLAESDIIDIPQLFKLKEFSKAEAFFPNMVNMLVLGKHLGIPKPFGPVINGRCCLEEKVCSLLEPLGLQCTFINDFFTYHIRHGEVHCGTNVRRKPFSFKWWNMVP

SMILES	IC50 [nM]
COc1cc(C(=O)N2C[C@H]3CC[C@@H]2[C@@H]3N)cc2nc(-c3cc4scc(C5CCCNC5)c4n3CC3CC3)n(C)c12 (single isomer, unassigned) [Example 17]	79
COc1cc(C(=O)N2C[C@H]3CC[C@@H]2[C@@H]3N)cc2nc(-c3cc4scc(-c5ccc(O)c(Cl)c5)c4n3CC3CC3)n(C)c12 [Example 35, ((1R,4R,7R)-7-amino-2-azabicyclo[2.2.1]heptan-2-yl)(2-(3-(3-chloro-4-hydroxyphenyl)-4-(cyclopropylmethyl)-4H-thieno[3,2-b]pyrrol-5-yl)-7-methoxy-1-methyl-1H-benzo[d]imidazol-5-yl)methanone]	150
COc1cc(C(=O)N2C[C@H]3CC[C@@H]2[C@@H]3N)cc2nc(-c3cc4scc(C5CC(O)C5)c4n3CC3CC3)n(C)c12 (single isomer, unassigned) [Example 21]	38
COc1cc(C(=O)N2C[C@H]3CC[C@@H]2[C@@H]3N)cc2nc(-c3cc4scc(CC(CN)CCl)c4n3CC3CC3)n(C)c12 (stereo partly drawn) [Example 19, (2-(3-(3-amino-2-(chloromethyl)propyl)-4-(cyclopropylmethyl)-4H-thieno[3,2-b]pyrrol-5-yl)-7-methoxy-1-methyl-1H-benzo[d]imidazol-5-yl)((1R,4R,7R)-7-amino-2-azabicyclo[2.2.1]heptan-2-yl)methanone]	70
COc1cc(C(=O)N2C[C@H]3CC[C@@H]2[C@@H]3N)cc2nc(-c3cc4scc(-c5ccc(O)c(F)c5)c4n3CC3CC3)n(C)c12 [Example 36, ((1R,4R,7R)-7-amino-2-azabicyclo[2.2.1]heptan-2-yl)(2-(4-(cyclopropylmethyl)-3-(3-fluoro-4-hydroxyphenyl)-4H-thieno[3,2-b]pyrrol-5-yl)-7-methoxy-1-methyl-1H-benzo[d]imidazol-5-yl)methanone]	59
COc1cc(C(=O)N2C[C@H]3CC[C@@H]2[C@@H]3N)cc2nc(-c3cc4scc(-c5cccs5)c4n3CC3CC3)n(C)c12 [Example 38, ((1R,4R,7R)-7-amino-2-azabicyclo[2.2.1]heptan-2-yl)(2-(4-(cyclopropylmethyl)-3-(thiophen-2-yl)-4H-thieno[3,2-b]pyrrol-5-yl)-7-methoxy-1-methyl-1H-benzo[d]imidazol-5-yl)methanone]	100
COc1cc(C(=O)N2C[C@H]3CC[C@@H]2[C@@H]3N)cc2nc(-c3cc4sc(-c5cn[nH]c5)cc4n3CC3CC3)n(C)c12 [Example 26, ((1R,4R,7R)-7-amino-2-azabicyclo[2.2.1]heptan-2-yl)(2-(4-(cyclopropylmethyl)-2-(1H-pyrazol-4-yl)-4H-thieno[3,2-b]pyrrol-5-yl)-7-methoxy-1-methyl-1H-benzo[d]imidazol-5-yl)methanone]	107
COc1cc(C(=O)N2C[C@H](N)C[C@@H](F)C2)cc2nc(-c3cc4scc(-c5cnn(C)c5)c4n3CC3CC3)n(C)c12 [Example 33, ((3R,5R)-3-amino-5-fluoropiperidin-1-yl)(2-(4-(cyclopropylmethyl)-3-(1-methyl-1H-pyrazol-4-yl)-4H-thieno[3,2-b]pyrrol-5-yl)-7-methoxy-1-methyl-1H-benzo[d]imidazol-5-yl)methanone]	50
COc1cc(C(=O)N2C[C@H]3CC[C@@H]2[C@@H]3N)cc2nc(-c3cc4scc(C5CCCNC5)c4n3CC3CC3)n(C)c12 (single isomer, unassigned) [Example 9]	40
COc1cc(C(=O)N2C[C@H]3CC[C@@H]2[C@@H]3N)cc2nc(-c3cc4scc(C5CCC(O)CC5)c4n3CC3CC3)n(C)c12 (mixture of isomers) [Example 10, cis/trans-((1R,4R,7R)-7-amino-2-azabicyclo[2.2.1]heptan-2-yl)(2-(4-(cyclopropylmethyl)-3-(4-hydroxycyclohexyl)-4H-thieno[3,2-b]pyrrol-5-yl)-7-methoxy-1-methyl-1H-benzo[d]imidazol-5-yl)methanone]	46
COc1cc(C(=O)N2C[C@H]3CC[C@@H]2[C@@H]3N)cc2nc(-c3cc4scc(Nc5ccncc5)c4n3CC3CC3)n(C)c12 [Example 49, ((1R,4R,7R)-7-Amino-2-azabicyclo[2.2.1]heptan-2-yl)(2-(4-(cyclopropylmethyl)-3-(pyridin-4-ylamino)-4H-thieno[3,2-b]pyrrol-5-yl)-7-methoxy-1-methyl-1H-benzo[d]imidazol-5-yl)methanone]	62
COc1cc(C(=O)N2C[C@H]3CC[C@@H]2[C@@H]3N)cc2nc(-c3cc4scc(C5CC(NC(C)=O)C5)c4n3CC3CC3)n(C)c12 (stereo partly drawn) [Example 5, N-(3-(5-(5-((1R,4R,7R)-7-amino-2-azabicyclo[2.2.1]heptane-2-carbonyl)-7-methoxy-1-methyl-1H-benzo[d]imidazol-2-yl)-4-(cyclopropylmethyl)-4H-thieno[3,2-b]pyrrol-3-yl)cyclobutyl)acetamide]	19
COc1cc(C(=O)N2C[C@H]3CC[C@@H]2[C@@H]3N)cc2nc(-c3cc4sc(Br)cc4n3CC3CC3)n(C)c12 [Example 24, ((1R,4R,7R)-7-Amino-2-azabicyclo[2.2.1]heptan-2-yl)(2-(2-bromo-4-(cyclopropylmethyl)-4H-thieno[3,2-b]pyrrol-5-yl)-7-methoxy-1-methyl-1H-benzo[d]imidazol-5-yl)methanone]	41
COc1cc(C(=O)N2C[C@H]3CC[C@@H]2[C@@H]3N)cc2nc(-c3cc4sccc4n3CC3CC3)n(C)c12 [Example 29, ((1R,4R,7R)-7-amino-2-azabicyclo[2.2.1]heptan-2-yl)(2-(4-(cyclopropylmethyl)-4H-thieno[3,2-b]pyrrol-5-yl)-7-methoxy-1-methyl-1H-benzo[d]imidazol-5-yl)methanone]	84
COc1cc(C(=O)N2C[C@H]3CC[C@@H]2[C@@H]3N)cc2nc(-c3cc4scc(CCC#N)c4n3CC3CC3)n(C)c12 [Example 15, 3-(5-(5-((1R,4R,7R)-7-amino-2-azabicyclo[2.2.1]heptane-2-carbonyl)-7-methoxy-1-methyl-1H-benzo[d]imidazol-2-yl)-4-(cyclopropylmethyl)-4H-thieno[3,2-b]pyrrol-3-yl)propanenitrile]	59
COc1cc(C(=O)N2C[C@H]3CC[C@@H]2[C@@H]3N)cc2nc(-c3cc4scc(-c5cnn(CC(F)F)c5)c4n3CC3CC3)n(C)c12 [Example 43, ((1R,4R,7R)-7-amino-2-azabicyclo[2.2.1]heptan-2-yl)(2-(4-(cyclopropylmethyl)-3-(1-(2,2-difluoroethyl)-1H-pyrazol-4-yl)-4H-thieno[3,2-b]pyrrol-5-yl)-7-methoxy-1-methyl-1H-benzo[d]imidazol-5-yl)methanone]	51
COc1cc(C(=O)N2C[C@H]3CC[C@@H]2[C@@H]3N)cc2nc(-c3cc4scc(CC5CNC5)c4n3CC3CC3)n(C)c12 [Example 18, ((1R,4R,7R)-7-amino-2-azabicyclo[2.2.1]heptan-2-yl)(2-(3-(azetidin-3-ylmethyl)-4-(cyclopropylmethyl)-4H-thieno[3,2-b]pyrrol-5-yl)-7-methoxy-1-methyl-1H-benzo[d]imidazol-5-yl)methanone]	165
COc1cc(C(=O)N2C[C@H](N)C[C@@H](F)C2)cc2nc(-c3cc4sc(C)cc4n3CC3CC3)n(C)c12 [Example 28, ((3R,5R)-3-amino-5-fluoropiperidin-1-yl)(2-(4-(cyclopropylmethyl)-2-methyl-4H-thieno[3,2-b]pyrrol-5-yl)-7-methoxy-1-methyl-1H-benzo[d]imidazol-5-yl)methanone]	67
COc1cc(C(=O)N2C[C@H]3CC[C@@H]2[C@@H]3N)cc2nc(-c3cc4scc(-c5cnn(CC(F)(F)F)c5)c4n3CC3CC3)n(C)c12 [Example 42, ((1R,4R,7R)-7-amino-2-azabicyclo[2.2.1]heptan-2-yl)(2-(4-(cyclopropylmethyl)-3-(1-(2,2,2-trifluoroethyl)-1H-pyrazol-4-yl)-4H-thieno[3,2-b]pyrrol-5-yl)-7-methoxy-1-methyl-1H-benzo[d]imidazol-5-yl)methanone]	59
